The numbers were not newly measured in patent US20040087563A1, “Hormone replacement therapy with cardiovascular protection using antialdosteronic progestins” (priority 2002, published 2004), which cites them from elsewhere.

Data set [1] concerns the target T1, mineralocorticoid receptor (Homo sapiens, UniProt P08235).
T1 sequence (P08235 1-984): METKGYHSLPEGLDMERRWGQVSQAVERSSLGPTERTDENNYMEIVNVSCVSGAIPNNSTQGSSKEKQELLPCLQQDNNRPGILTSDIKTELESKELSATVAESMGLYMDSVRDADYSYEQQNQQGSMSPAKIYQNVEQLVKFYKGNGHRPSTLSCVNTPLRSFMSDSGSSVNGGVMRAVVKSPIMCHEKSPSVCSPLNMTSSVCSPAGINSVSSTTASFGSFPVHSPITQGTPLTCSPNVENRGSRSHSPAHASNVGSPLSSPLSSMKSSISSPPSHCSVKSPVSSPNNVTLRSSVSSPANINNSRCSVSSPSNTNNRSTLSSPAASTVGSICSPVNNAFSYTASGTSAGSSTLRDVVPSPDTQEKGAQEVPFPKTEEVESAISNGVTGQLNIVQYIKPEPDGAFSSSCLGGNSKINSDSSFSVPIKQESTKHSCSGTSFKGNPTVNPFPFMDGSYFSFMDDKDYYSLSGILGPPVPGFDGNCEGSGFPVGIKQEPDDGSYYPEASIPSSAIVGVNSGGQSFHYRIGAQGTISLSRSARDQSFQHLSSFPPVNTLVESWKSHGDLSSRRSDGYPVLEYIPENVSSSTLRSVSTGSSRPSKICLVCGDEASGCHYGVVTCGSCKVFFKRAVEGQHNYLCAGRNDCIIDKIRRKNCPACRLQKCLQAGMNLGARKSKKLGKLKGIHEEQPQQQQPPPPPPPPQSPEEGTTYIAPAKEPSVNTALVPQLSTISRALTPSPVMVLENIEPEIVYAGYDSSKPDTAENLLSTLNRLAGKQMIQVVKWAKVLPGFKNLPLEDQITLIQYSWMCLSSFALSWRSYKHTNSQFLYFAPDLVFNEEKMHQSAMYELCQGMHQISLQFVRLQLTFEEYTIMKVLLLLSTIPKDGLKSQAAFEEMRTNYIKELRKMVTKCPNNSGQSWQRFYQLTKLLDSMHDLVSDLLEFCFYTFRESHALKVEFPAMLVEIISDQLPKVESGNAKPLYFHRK
Particulars: compared with spironolactone.

Data set [2] relates to renin-angiotensin-aldosterone system. Particulars: healthy female volunteers.
The conditions of data set [3]: patients with severe heart failure already receiving ACE inhibitor therapy.

Take `C[C@]12CCC(=O)C=C1[C@@H]1C[C@@H]1[C@H]1[C@@H]3[C@@H]4C[C@@H]4[C@@]4(CCC(=O)O4)[C@@]3(C)CC[C@@H]12` [Drospirenone, 6β,7β;15β;16β-dimethylene-3-oxo-17α-preg-4-ene-21, 17-carbolactone]: the “potency relative to spironolactone (antimineralocorticoid activity)” value in data set [1] is “about 8 times”. In addition, the plasma aldosterone levels result in data set [2] is recorded as “increased”.

Turning to `CC(=O)S[C@@H]1CC2=CC(=O)CC[C@]2(C)[C@H]2CC[C@@]3(C)[C@@H](CC[C@@]34CCC(=O)O4)[C@H]12` [Spironolactone, 17-hydroxy-7-alpha-mercapto-3-oxo-17-alpha-pregn-4-ene-21-carboxylic acid gamma-lactone acetate], the morbidity and mortality result in data set [3] was “decrease the morbidity and mortality”.
